Results taken from the supplement of paper PMC13380429.

Assays:
Conditions in all cases: 72 h
Calu-3 [1] = assay: relative viability EC50 (midpoint between 100% and the lowest measured viability); higher = less toxic
Vero E6 [2] = assay: as above
HepG2 [3] = assay: as above
Caco-2 [4] = assay: as above
Calu-3 [5] = assay: drug sensitivity score (DSS) for viability; higher = more toxic; extreme values may be limits of the assay
Vero E6 [6] = assay: as above
HepG2 [7] = assay: as above
Caco-2 [8] = assay: as above
Calu-3 [9] = assay: cell viability relative to DMSO; higher = less toxic
Vero E6 [10] = assay: as above
HepG2 [11] = assay: as above
Caco-2 [12] = assay: as above
U2OS [13] = assay: relative viability EC50 (midpoint between 100% and the lowest measured viability); higher = less toxic
U2OS [14] = assay: drug sensitivity score (DSS) for viability; higher = more toxic; extreme values may be limits of the assay
U2OS [15] = assay: cell viability relative to DMSO; higher = less toxic

SMILES | relative viability EC50 (Calu-3 [1]) | relative viability EC50 (Vero E6 [2]) | relative viability EC50 (HepG2 [3]) | relative viability EC50 (Caco-2 [4]) | drug sensitivity score (Calu-3 [5]) | drug sensitivity score (Vero E6 [6]) | drug sensitivity score (HepG2 [7]) | drug sensitivity score (Caco-2 [8]) | cell viability (Calu-3 [9]; 1 nM) | cell viability (Calu-3 [9]; 10 nM) | cell viability (Calu-3 [9]; 100 nM) | cell viability (Calu-3 [9]; 1000 nM) | cell viability (Calu-3 [9]; 10000 nM) | cell viability (Vero E6 [10]; 1 nM) | cell viability (Vero E6 [10]; 10 nM) | cell viability (Vero E6 [10]; 100 nM) | cell viability (Vero E6 [10]; 1000 nM) | cell viability (Vero E6 [10]; 10000 nM) | cell viability (HepG2 [11]; 1 nM) | cell viability (HepG2 [11]; 10 nM) | cell viability (HepG2 [11]; 100 nM) | cell viability (HepG2 [11]; 1000 nM) | cell viability (HepG2 [11]; 10000 nM) | cell viability (Caco-2 [12]; 1 nM) | cell viability (Caco-2 [12]; 10 nM) | cell viability (Caco-2 [12]; 100 nM) | cell viability (Caco-2 [12]; 1000 nM) | cell viability (Caco-2 [12]; 10000 nM) | relative viability EC50 (U2OS [13]) | drug sensitivity score (U2OS [14]) | cell viability (U2OS [15]; 1 nM) | cell viability (U2OS [15]; 10 nM) | cell viability (U2OS [15]; 100 nM) | cell viability (U2OS [15]; 1000 nM) | cell viability (U2OS [15]; 10000 nM)
COc1ccc(-c2nc(C(=O)N3CCN(C)CC3)sc2-c2ccc(OC)cc2)cc1 | > 10 µM | > 10 µM | > 10 µM | > 10 µM | 0 | 0 | 0 | 0 | 97.5% | 101% | 99.7% | 109% | 106% | 107% | 104% | 102% | 103% | 95.6% | 98.7% | 95.7% | 104% | 107% | 98.5% | 99.2% | 94.6% | 108% | 102% | 102% | – | – | – | – | – | – | –
O=C(O)[C@H](O)[C@@H](O)[C@H](O[C@@H]1O[C@H](CO)[C@H](O)[C@H](O)[C@H]1O)[C@H](O)CO [maltobionic-acid] | > 10 µM | > 10 µM | – | > 10 µM | 0 | 0 | – | 0 | 103% | 106% | 101% | 100% | 99.7% | 94.3% | 89.8% | 94.4% | 88% | 101% | – | – | – | – | – | 89.3% | 101% | 85.6% | 97.9% | 115% | > 10 µM | 0 | 93.6% | 103% | 97.8% | 102% | 101%
CO/N=C(\C(=O)N[C@@H]1C(=O)N2C(C(=O)O)=C(COC(N)=O)CS[C@H]12)c1ccco1 [CEFUROXIME SODIUM] | – | > 10 µM | > 10 µM | > 10 µM | – | 0 | 0 | 0 | – | – | – | – | – | 101% | 95.6% | 97.6% | 95.1% | 110% | 97.7% | 109% | 95.4% | 97.8% | 103% | 106% | 90.6% | 98.6% | 107% | 99.4% | > 10 µM | 0 | 97.3% | 95% | 96.8% | 98.7% | 103%
CCOc1ccccc1N/N=C1/C(=O)N(c2nc(-c3ccccc3)cs2)N=C1C [BAM7] | > 10 µM | > 10 µM | > 10 µM | > 10 µM | 0 | 0 | 0.9 | 0 | 96.5% | 95.8% | 83.7% | 97.3% | 99.6% | 98.8% | 101% | 95.2% | 95.2% | 94.8% | 106% | 96.2% | 99.1% | 92.2% | 82.6% | 94.6% | 105% | 88.2% | 103% | 88.7% | – | – | – | – | – | – | –
S=C(NC1CCCCC1)N1CCC(c2cnc[nH]2)CC1 [thioperamide] | – | > 10 µM | > 10 µM | > 10 µM | – | 0 | 0 | 0 | – | – | – | – | – | 103% | 103% | 96.5% | 94.3% | 95.9% | 108% | 97.3% | 104% | 100% | 92.7% | 98.7% | 99.4% | 92.7% | 103% | 95.4% | > 10 µM | 0 | 100% | 96.2% | 98.7% | 93.1% | 96.4%
CCN1CCN(C(=O)N[C@@H](C(=O)N[C@@H]2C(=O)N3[C@@H]2SC(C)(C)[C@@H]3C(=O)O)c2ccccc2)C(=O)C1=O [piperacillin] | – | > 10 µM | > 10 µM | > 10 µM | – | 0 | 0 | 0 | – | – | – | – | – | 97.2% | 99.1% | 97.7% | 96.5% | 110% | 114% | 113% | 104% | 103% | 95.5% | 93.8% | 91.1% | 97.8% | 103% | 106% | > 10 µM | 0 | 97% | 94% | 93.9% | 102% | 103%
O=C(NC(NC(=S)Nc1ccc(F)c([N+](=O)[O-])c1)C(Cl)(Cl)Cl)C(c1ccccc1)c1ccccc1 (stereo not given) [CGK-733] | – | 2.96 µM | 2.91 µM | 2.26 µM | 2.2 | 4.7 | 5.6 | 6.6 | 97.8% | 103% | 96.6% | 104% | 52.8% | 98.8% | 100% | 101% | 97.8% | 20% | 95.8% | 94.2% | 104% | 96.7% | 7.9% | 99.2% | 106% | 93.9% | 90.3% | 10.7% | 2.72 µM | 4.6 | 94.4% | 103% | 96.4% | 95.9% | 27.4%
CN1CCc2cc3c(cc2[C@H]1[C@@H]1OC(=O)c2c1ccc1c2OCO1)OCO3 [bicuculline-(+)] | – | > 10 µM | > 10 µM | > 10 µM | – | 0 | 0 | 0 | – | – | – | – | – | 95.2% | 98.6% | 94.7% | 102% | 104% | 91.1% | 98.3% | 88.8% | 97.8% | 106% | 93.2% | 86.7% | 96.4% | 96.5% | 100% | > 10 µM | 0 | 97.4% | 96.1% | 97.6% | 99.5% | 99.8%
O=C(O)c1cc(O)c2c(c1)[C@H]([C@H]1c3cc(C(=O)O)cc(O)c3C(=O)c3c(O[C@@H]4O[C@H](CO)[C@@H](O)[C@H](O)[C@H]4O)cccc31)c1cccc(O[C@@H]3O[C@H](CO)[C@@H](O)[C@H](O)[C@H]3O)c1C2=O [sennoside-A] | – | > 10 µM | > 10 µM | > 10 µM | 2.3 | 0 | 0 | 0 | 95.3% | 96.8% | 90.1% | 91% | 67.3% | 112% | 93.1% | 95.9% | 98.8% | 101% | 90.2% | 91.7% | 89.6% | 103% | 92.4% | 79.8% | 100% | 88% | 82.1% | 123% | > 10 µM | 0 | 94% | 100% | 96.5% | 96.6% | 88.3%
CCNC(=O)[C@H]1O[C@@H](n2cnc3c(N)nc(NCCc4ccc(CCC(=O)O)cc4)nc32)[C@H](O)[C@@H]1O | > 10 µM | > 10 µM | > 10 µM | > 10 µM | 0 | 0 | 0 | 0 | 95.7% | 99.2% | 99.5% | 113% | 98.9% | 104% | 109% | 98.8% | 97.9% | 95.8% | 96.2% | 102% | 116% | 97% | 96.7% | 99.1% | 101% | 92.1% | 96.4% | 97.3% | – | – | – | – | – | – | –
Nc1nc(N)c2nc(-c3ccccc3)c(N)nc2n1 [triamterene] | > 10 µM | – | > 10 µM | > 10 µM | 0 | 1.5 | 5.2 | 0 | 103% | 101% | 93.6% | 97.9% | 102% | 97.9% | 98.2% | 101% | 98.6% | 70.4% | 97.9% | 83.3% | 85.9% | 88.7% | 88.1% | 104% | 120% | 97.8% | 106% | 98.8% | > 10 µM | 0 | 102% | 101% | 106% | 108% | 97.8%
COC1=C2C[C@@H](C)C[C@H](OC)[C@H](O)[C@@H](C)/C=C(\C)[C@H](OC(N)=O)[C@@H](OC)/C=C\C=C(/C)C(=O)NC(=CC1=O)C2=O [geldanamycin] | 1.01 µM | – | 0.35 µM | 0.716 µM | 7.6 | 1.8 | 17.3 | 9.2 | 99% | 107% | 103% | 68% | 35.4% | 97.1% | 102% | 98% | 98.1% | 65.9% | 101% | 105% | 106% | 1.2% | 1% | 106% | 95.9% | 95.1% | 56.9% | 29.2% | 0.474 µM | 15 | 100% | 101% | 93.6% | 24.2% | 3%
COc1ccc(S(=O)(=O)N2CCC[C@H]2C(=O)Nc2cc(C)cc(C)c2)cc1 | – | > 10 µM | > 10 µM | > 10 µM | – | 0 | 0 | 0 | – | – | – | – | – | 102% | 102% | 107% | 98.4% | 99.7% | 101% | 99% | 113% | 104% | 104% | 91% | 93.1% | 98.1% | 102% | 90% | > 10 µM | 0 | 103% | 100% | 98.1% | 102% | 99.2%
O=C1C(O)=C([C@H]2CC[C@H](c3ccc(Cl)cc3)CC2)C(=O)c2ccccc21 [atovaquone] | > 10 µM | – | > 10 µM | > 10 µM | 0 | 1.7 | 0 | 0 | 102% | 107% | 92.2% | 102% | 108% | 95.2% | 101% | 101% | 99.2% | 66.3% | 99.4% | 90.2% | 94.8% | 98.9% | 107% | 94.6% | 103% | 104% | 102% | 95.9% | > 10 µM | 0 | 96.8% | 98.3% | 96.5% | 96.4% | 92.8%
O=C(CN1CCN(C(=O)c2ccco2)CC1)Nc1cc(C(F)(F)F)ccc1Cl [ML348] | > 10 µM | > 10 µM | > 10 µM | > 10 µM | 0 | 0 | 0 | 0 | 118% | 95.7% | 102% | 104% | 95.5% | 98.4% | 98.8% | 94% | 98.3% | 94.6% | 96.9% | 98% | 93.1% | 106% | 104% | 96.3% | 89% | 97% | 96.1% | 91.1% | – | – | – | – | – | – | –
